According to ChEMBL document CHEMBL1201862, “PubChem BioAssay data set” (2004):
Active and inactive are the calls of the source.

Experiments:
[1] = A Cell Based Secondary Assay to Explore Cytotoxicity in HepG2 Cells of Compounds that Modulate Mycobacterium tuberculosis in Media Containing Glycerol versus Media without Glycerol (2).; type: functional
[2] = microbe, parasite or virus in culture; type: functional; details: Mycobacterium tuberculosis
[3] = A Cell Based Secondary Assay to Explore Cytotoxicity in THP-1 Cells of Compounds that Modulate Mycobacterium tuberculosis in Media Containing Glycerol versus Media without Glycerol (2).; type: functional
[4] = Luminescence Cell-Based Dose Retest to Confirm Inhibitors of Cancer Stem Cells. [Related pubchem assays (depositor defined):AID2717, AID2721]; type: functional; details: Homo sapiens
[5] = molecular target: T1, Short transient receptor potential channel 4 (Mus musculus, UniProt Q9QUQ5); assay: mouse TRPC4 channel inhibitors, dose response, cell-based, HEK293 TRPC4/mu-opioid, Fluo-4 calcium (AID 434942); type: functional;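 also: potency of inhibitors blocking the TRPC4 calcium response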
T1 sequence (Q9QUQ5 whole entry): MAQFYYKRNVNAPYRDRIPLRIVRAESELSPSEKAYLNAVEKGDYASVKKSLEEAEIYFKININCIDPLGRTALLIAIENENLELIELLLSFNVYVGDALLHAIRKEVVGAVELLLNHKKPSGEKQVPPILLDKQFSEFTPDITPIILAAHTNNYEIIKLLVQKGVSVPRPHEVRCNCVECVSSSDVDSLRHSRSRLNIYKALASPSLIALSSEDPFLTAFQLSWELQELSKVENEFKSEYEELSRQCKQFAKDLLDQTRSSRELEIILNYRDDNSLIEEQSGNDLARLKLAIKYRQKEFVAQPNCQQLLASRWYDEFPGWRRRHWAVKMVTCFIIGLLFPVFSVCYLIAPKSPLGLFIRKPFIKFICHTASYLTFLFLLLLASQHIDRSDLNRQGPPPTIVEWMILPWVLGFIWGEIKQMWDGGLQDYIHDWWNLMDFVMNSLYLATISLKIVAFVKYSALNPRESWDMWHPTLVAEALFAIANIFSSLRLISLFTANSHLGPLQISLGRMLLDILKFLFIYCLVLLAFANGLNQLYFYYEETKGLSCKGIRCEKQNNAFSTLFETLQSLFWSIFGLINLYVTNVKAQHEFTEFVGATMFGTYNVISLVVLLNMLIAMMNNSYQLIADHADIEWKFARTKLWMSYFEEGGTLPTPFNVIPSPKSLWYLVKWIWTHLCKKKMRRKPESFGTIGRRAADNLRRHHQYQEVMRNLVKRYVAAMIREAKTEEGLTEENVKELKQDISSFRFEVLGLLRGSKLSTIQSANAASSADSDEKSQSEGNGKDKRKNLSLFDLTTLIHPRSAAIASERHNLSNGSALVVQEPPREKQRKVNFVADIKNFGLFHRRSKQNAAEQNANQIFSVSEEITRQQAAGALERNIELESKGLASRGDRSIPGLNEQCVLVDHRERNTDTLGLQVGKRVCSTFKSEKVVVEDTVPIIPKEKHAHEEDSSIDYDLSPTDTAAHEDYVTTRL

[6] = Vero cell cytotoxicity, cytotoxicity control for M. tuberculosis inhibitor project, purified and synthesized samples, set 3 (AID 504684); type: functional
[7] = molecular target: Serine/threonine-protein phosphatase (Candida dubliniensis (strain CD36 / CBS 7987 / NCPF 3949 / NRRLY-17841) (Yeast), UniProt B9W6M3); assay: calcineurin pathway inhibitors in yeast reporter, dose response, S. cerevisiae, CDRE-lacZ, luminescence, secondary (AID 2388); type: functional, cell-based;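 also: yeast reporter cells carrying a calcineurin-responsive lacZ construct stimulated with calcium chloride; luminescent beta-galactosidase reporter signal in whole cells rather than isolated phosphatase activity; potency for inhibition where a drop in reporter signal means calcineurin blockade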
Large T antigen = Large T antigen (Simian virus 40, UniProt P03070); type: functional, Betapolyomavirus macacae;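 also: Confirmatory-stage PubChem screen for compounds that inhibit SV40 T antigen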
[8] = C. albicans growth with fluconazole, confirmation, fluorescence, retest (AID 2467); type: functional, cell-based
[9] = NIH-3T3 fibroblast cytotoxicity, dose response, cytotoxicity control, cell-based, fluorescence, Alamar Blue, secondary assay (AID 2327); type: functional;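 also: NIH-3T3 mouse fibroblasts cultured with fluconazole at 8 µg/mL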
[10] = molecular target: ATP-dependent molecular chaperone HSP82 (Candida albicans (strain WO-1) (Yeast), UniProt C4YTQ8); assay: loss of DOC-induced GRE-beta-galactosidase reporter signal, dose response, Hsp90 inhibitor project, S. cerevisiae, luminescence (AID 2400); type: functional, cell-based;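 also: beta-galactosidase luminescence from glucocorticoid response element reporter as proxy for Hsp90 function; inhibitor potency where signal loss means Hsp90 inhibition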
DNA topoisomerase = DNA topoisomerase (Yersinia pestis, UniProt A0A2S9PM60); assay: Y. pestis Topo-I inhibitors, cleavage product readout, dose response, biochemical, cherry-pick (AID 588525)
CHO-K1 = assay: (§1) Counterscreen for antagonists of the orexin 1 receptor (OX1R; HCRTR1): Homogeneous time resolved fluorescence (HTRF)-based cell-based dose response assay to identify antagonists of the parental CHO-K1 cell line. [Related pubchem assays (depositor defined):AID434989, AID435008, AID463079, AID485270, AID492963, AID492964, AID492965, AID493232, AID504699, AID504701]; type: functional; details: Cricetulus griseus
Orexin receptor type 2 [11] = molecular target: T2, Orexin receptor type 2 (Homo sapiens, UniProt O43614); assay: Counterscreen assay for antagonists of the orexin 1 receptor (OX1R; HCRTR1): Fluorescence-based cell-based dose response assay for antagonists of the orexin 2 receptor (OX2R; HCRTR2), run by assay provider.; type: functional
Orexin receptor type 2 [12] = molecular target: T2, Orexin receptor type 2; assay: Counterscreen assay for antagonists of the orexin 1 receptor (OX1R; HCRTR1): Homogeneous Time Resolved Fluorescence (HTRF)-based cell-based dose response assay for antagonists of the orexin 2 receptor (OX2R; HCRTR2), run by assay provider.; type: functional
[13] = molecular target: T3, Orexin/Hypocretin receptor type 1 (Homo sapiens, UniProt O43613); assay: Homogeneous Time Resolved Fluorescence (HTRF)-based cell-based high throughput dose response assay for antagonists of the orexin 1 receptor (OX1R; HCRTR1). [Related pubchem assays (depositor defined):AID434989, AID435008, AID463079, AID485270, AID492963, AID492964, AID492965, AID493232, AID504717, AID504718]; type: functional
T3 sequence (O43613 whole entry): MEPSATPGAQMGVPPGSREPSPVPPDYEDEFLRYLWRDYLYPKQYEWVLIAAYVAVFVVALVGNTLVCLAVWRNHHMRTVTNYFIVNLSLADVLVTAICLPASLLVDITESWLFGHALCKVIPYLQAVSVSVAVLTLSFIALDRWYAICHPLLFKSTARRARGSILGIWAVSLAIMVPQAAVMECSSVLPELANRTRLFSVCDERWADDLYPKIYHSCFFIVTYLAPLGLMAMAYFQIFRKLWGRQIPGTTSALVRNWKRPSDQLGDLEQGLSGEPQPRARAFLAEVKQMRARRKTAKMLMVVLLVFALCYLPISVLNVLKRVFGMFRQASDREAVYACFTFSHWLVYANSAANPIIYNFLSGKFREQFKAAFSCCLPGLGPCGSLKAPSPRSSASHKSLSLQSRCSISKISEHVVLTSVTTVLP

[14] = molecular target: T3, Orexin/Hypocretin receptor type 1; assay: Fluorescence-based cell-based high throughput dose response assay for antagonists of the orexin 1 receptor (OX1R; HCRTR1). [Related pubchem assays (depositor defined):AID434989, AID435008, AID463079, AID485270, AID492963, AID492964, AID492965, AID493232, AID504717, AID504718]; type: functional
[15] = as §1, with “Fluorescence-based” for “Homogeneous time resolved fluorescence (HTRF)-based”, “cell-based high throughput” for “cell-based”, “CHO” for “CHO-K1”; type: functional
[16] = molecular target: T4, Endoribonuclease toxin MazF (Escherichia coli K-12, UniProt P0AE70); assay: MazF toxin RNase activators, dose response, biochemical, fluorescence, single-stranded RNA substrate, uHTS hits (AID 588481); type: functional
Beta Lactamase = Beta Lactamase (Pseudomonas aeruginosa, UniProt Q932Y6); assay: beta-lactamase reporter inhibitor potency, dose response, artefact control for TLR9-MyD88 binding inhibitor project, BLA reporter cells, FRET fluorescence (AID 588341); type: cell-based;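 also: cell based assay in CHO-K1 cells stably expressing beta-lactamase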
[17] = molecular target: T4, Endoribonuclease toxin MazF; assay: fluorescent RNA oligo signal without MazF, dose response, counter-screen for MazEF activator project, biochemical, fluorescence, single-stranded RNase substrate (AID 588502); type: functional
CHO = assay: cytotoxicity in TLR9-MyD88 CHO cells, dose response, cytotoxicity control for TLR9-MyD88 binding inhibitor project, cell-based, luminescence (AID 588339); type: functional, hamster; details: Cricetulus griseus;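 also: CHO cells stably coexpressing TLR9 and MyD88 fusions from primary screen; compound exposure lasted 48 hours before viability readout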

T2 sequence (O43614 whole entry): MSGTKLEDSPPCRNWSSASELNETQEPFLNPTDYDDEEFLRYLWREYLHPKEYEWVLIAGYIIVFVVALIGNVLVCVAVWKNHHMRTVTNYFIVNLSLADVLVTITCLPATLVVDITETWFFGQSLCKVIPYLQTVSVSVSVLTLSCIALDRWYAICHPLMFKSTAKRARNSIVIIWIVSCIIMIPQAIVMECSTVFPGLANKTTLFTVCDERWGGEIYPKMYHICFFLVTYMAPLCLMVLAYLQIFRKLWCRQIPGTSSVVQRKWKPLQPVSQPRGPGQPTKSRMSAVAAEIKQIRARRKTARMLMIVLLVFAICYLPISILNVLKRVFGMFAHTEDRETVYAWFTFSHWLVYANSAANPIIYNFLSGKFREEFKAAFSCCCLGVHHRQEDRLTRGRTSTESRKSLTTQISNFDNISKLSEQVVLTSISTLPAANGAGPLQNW
T4 sequence (P0AE70 whole entry): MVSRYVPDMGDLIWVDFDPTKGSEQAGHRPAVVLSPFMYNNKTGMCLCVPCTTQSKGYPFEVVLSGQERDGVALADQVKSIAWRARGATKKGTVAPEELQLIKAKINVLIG
Chain of DNA topoisomerase (A0A2S9PM60 whole entry): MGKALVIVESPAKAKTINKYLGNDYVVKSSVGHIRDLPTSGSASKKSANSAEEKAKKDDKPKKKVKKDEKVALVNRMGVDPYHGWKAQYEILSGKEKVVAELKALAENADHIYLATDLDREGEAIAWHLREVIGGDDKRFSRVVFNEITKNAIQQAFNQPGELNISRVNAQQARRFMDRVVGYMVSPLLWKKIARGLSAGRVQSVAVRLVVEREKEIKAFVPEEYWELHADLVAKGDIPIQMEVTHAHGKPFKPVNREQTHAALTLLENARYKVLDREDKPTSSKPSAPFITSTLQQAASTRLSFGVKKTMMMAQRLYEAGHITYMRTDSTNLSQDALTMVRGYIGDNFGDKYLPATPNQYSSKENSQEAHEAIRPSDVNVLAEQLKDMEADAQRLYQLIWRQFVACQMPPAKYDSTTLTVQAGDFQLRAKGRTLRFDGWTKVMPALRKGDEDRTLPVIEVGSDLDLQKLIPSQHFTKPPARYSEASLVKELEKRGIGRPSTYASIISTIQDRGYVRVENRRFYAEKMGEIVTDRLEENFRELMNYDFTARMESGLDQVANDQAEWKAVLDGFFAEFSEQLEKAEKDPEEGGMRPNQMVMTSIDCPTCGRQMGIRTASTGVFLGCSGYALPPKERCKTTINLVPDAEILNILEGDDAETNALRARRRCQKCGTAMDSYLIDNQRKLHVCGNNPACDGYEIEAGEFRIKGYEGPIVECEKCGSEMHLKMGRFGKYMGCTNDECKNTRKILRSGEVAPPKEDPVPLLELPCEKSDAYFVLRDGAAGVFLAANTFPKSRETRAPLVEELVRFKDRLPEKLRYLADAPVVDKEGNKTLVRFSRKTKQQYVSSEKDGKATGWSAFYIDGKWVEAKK
Chain of Beta Lactamase (Q932Y6 whole entry): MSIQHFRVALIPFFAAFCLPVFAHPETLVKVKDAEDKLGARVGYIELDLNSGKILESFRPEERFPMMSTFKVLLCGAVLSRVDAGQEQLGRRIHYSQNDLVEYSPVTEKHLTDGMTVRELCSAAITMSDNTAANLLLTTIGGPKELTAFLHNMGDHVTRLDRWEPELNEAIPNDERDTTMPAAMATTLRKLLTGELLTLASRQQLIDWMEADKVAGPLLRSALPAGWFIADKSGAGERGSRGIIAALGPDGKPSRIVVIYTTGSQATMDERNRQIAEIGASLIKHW
Chain of ATP-dependent molecular chaperone HSP82 (C4YTQ8 whole entry): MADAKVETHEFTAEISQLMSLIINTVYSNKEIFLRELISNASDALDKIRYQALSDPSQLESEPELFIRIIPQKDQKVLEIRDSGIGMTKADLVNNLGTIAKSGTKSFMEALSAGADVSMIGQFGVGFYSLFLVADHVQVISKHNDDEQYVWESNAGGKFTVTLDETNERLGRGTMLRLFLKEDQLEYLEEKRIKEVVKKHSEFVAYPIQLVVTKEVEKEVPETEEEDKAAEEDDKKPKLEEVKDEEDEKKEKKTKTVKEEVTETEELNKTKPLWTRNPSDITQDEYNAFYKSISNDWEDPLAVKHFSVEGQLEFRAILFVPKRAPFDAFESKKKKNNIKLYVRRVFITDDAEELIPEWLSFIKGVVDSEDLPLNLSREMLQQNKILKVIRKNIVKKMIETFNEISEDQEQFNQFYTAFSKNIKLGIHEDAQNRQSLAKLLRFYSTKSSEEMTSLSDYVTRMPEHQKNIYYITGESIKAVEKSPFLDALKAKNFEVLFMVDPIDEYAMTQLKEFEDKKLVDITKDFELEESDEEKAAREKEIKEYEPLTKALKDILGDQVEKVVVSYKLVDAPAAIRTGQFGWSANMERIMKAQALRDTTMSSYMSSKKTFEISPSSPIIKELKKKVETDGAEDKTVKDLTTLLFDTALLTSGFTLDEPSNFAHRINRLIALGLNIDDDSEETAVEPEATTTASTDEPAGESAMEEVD
Chain of Serine/threonine-protein phosphatase (B9W6M3 whole entry): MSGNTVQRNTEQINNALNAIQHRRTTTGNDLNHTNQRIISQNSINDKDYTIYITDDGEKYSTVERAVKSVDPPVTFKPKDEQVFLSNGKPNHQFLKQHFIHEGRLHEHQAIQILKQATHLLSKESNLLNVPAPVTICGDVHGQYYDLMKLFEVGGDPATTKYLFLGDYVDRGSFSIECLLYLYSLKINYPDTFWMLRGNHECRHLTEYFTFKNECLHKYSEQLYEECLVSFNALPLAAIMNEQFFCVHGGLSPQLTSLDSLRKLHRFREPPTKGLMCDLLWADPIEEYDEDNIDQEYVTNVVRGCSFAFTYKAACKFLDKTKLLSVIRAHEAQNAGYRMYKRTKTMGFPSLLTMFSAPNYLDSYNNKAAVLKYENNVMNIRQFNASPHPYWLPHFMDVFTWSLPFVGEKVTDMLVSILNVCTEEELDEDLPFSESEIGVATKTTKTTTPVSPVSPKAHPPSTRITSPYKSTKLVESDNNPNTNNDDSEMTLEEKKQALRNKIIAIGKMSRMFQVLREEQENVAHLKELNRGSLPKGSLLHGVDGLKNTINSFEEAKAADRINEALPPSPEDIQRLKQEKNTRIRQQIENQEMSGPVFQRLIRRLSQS
Chain of Large T antigen (P03070 whole entry): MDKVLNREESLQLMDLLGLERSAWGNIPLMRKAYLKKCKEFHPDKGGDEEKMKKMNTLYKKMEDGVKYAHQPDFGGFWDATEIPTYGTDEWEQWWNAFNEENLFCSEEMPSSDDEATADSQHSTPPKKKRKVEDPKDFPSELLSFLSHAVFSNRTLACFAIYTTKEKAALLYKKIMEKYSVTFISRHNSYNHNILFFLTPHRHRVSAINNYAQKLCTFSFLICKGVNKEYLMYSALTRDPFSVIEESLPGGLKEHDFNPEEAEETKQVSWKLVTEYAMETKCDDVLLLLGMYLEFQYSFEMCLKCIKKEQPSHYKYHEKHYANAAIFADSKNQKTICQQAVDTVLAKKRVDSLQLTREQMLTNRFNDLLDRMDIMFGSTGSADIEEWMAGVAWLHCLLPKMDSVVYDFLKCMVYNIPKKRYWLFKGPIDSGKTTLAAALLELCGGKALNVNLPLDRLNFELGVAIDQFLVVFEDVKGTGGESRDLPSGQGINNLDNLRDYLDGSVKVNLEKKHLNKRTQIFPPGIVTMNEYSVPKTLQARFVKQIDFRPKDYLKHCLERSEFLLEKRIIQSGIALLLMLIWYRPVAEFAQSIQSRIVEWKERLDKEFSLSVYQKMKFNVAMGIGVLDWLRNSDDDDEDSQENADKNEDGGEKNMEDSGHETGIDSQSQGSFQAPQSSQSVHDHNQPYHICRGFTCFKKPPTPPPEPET

CNc1nc(SCc2ccccc2Cl)nc2c1CCCC2
CC50 [1]: 36.2 µM (active) | CC50 [2]: 9.68 µM (active) | CC50 [3]: 49.2 µM (active) | AC50 [4]: 8.66 µM (active) | EC50 [5]: 4.73 µM (active) | CC50 [6]: 25.6 µM (active)

O=Nc1c(-c2cccc([N+](=O)[O-])c2)nc2ncccn12
EC50 [7]: 0.828 µM (active) | IC50 (Large T antigen): 32.5 µM (active) | EC50 [8]: 1.11 µM (active) | EC50 [9]: > 160 µM (inconclusive) | EC50 [10]: 0.826 µM (active)

Cc1ccc(S(=O)(=O)N=C(N)Nc2nc(C)c3cc(C)ccc3n2)cc1
AC50 (DNA topoisomerase): 14.2 µM (active)

O=[N+]([O-])c1c(O)nc2ccc(Cl)cc2c1-c1ccccc1
IC50 (CHO-K1): > 66.2 µM (inactive) | IC50 (Orexin receptor type 2 [11]): > 88.8 µM (inactive) | IC50 (Orexin receptor type 2 [12]): 1.5 µM (active) | IC50 [13]: 0.915 µM (active) | IC50 [14]: > 49.8 µM (inactive) | IC50 [15]: > 49.8 µM (inactive)

COc1ccc(OC)c(/C=C/c2nc3ccccc3nc2O)c1
EC50 [16]: > 99 µM (inactive) | IC50 (Beta Lactamase): 8.5 µM (active) | EC50 [17]: > 99 µM (inactive) | IC50 (CHO): 28.4 µM (inactive)
